Test results as given in US20210115047A1, “CDPK1 INHIBITORS, COMPOSITIONS AND METHODS RELATED THERETO” (Vyera Pharmaceutical, LLC, priority 2017, published 2021).

Molecular target: T1, T. gondii CDPK1 (tgCDPK1) (Toxoplasma gondii, UniProt Q9BJF5)
T1 sequence (Q9BJF5 1-507): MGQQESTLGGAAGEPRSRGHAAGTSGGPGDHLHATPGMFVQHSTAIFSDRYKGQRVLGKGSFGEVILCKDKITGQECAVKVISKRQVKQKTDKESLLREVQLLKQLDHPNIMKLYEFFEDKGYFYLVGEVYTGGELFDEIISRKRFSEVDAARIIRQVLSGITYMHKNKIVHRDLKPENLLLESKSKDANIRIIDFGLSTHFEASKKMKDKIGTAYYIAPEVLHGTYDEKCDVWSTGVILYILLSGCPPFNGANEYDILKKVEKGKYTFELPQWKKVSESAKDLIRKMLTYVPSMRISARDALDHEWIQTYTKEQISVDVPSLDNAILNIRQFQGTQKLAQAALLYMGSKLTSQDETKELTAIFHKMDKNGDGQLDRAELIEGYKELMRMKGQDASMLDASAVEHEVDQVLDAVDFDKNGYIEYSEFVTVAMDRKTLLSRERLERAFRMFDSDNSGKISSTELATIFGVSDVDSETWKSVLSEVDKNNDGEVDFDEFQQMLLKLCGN
Assay: Inhibition of T. gondii CDPK1 (tgCDPK1), IC50 determination
Assay type: biochemical
Details: at least three independent replicates per compound
Procedure: Certain of the compounds prepared as described above were assayed to determine their IC50 for inhibition of T. gondii CDPK1 (tgCDPK1). At least three independent replicates of the assay were conducted for each compound tested.

Nc1ncnc2c1c(Cc1cc(F)cc(Cl)c1)nn2C1CC1 [Compound 4, 3-(3-chloro-5-fluorobenzyl)-1-cyclopropyl-1H-pyrazolo[3,4-d]pyrimidin-4-amine]
IC50: 91.7 nM

Nc1ncnc2c1c(Cc1ccccc1)nn2C1CC1 [Compound 17, 3-benzyl-1-cyclopropyl-1H-pyrazolo[3,4-d]pyrimidin-4-amine]
IC50: 25.4 nM

Nc1ncnc2c1c(Cc1cccc(-c3cncnc3)c1)nn2C1CC1 [Compound 10, 1-cyclopropyl-3-(3-(pyrimidin-5-yl)benzyl)-1H-pyrazolo[3,4-d]pyrimidin-4-amine]
IC50: 373 nM

Nc1ncnc2c1c(C(O)c1ccccc1)nn2C1CC1 (stereo not drawn) [Compound 16, (4-amino-1-cyclopropyl-1H-pyrazolo[3,4-d]pyrimidin-3-yl)(phenyl)methanol]
IC50: 1750 nM

Nc1ncnc2c1c(Cc1cccc(-c3ccccc3)c1)nn2C1CC1 [Compound 9, 3-([1,1′-biphenyl]-3-ylmethyl)-1-cyclopropyl-1H-pyrazolo[3,4-d]pyrimidin-4-amine]
IC50: 26.3 nM

Nc1ncnc2c1c(Cc1cccc(-c3ccncc3)c1)nn2C1CC1 [Compound 11, 1-cyclopropyl-3-(3-(pyridin-4-yl)benzyl)-1H-pyrazolo[3,4-d]pyrimidin-4-amine]
IC50: 1170 nM

Nc1ncnc2c1c(C(O)c1cccnc1)nn2C1CC1 (stereo not drawn) [Compound 18, (4-amino-1-cyclopropyl-1H-pyrazolo[3,4-d]pyrimidin-3-yl)(pyridin-3-yl)methanol]
IC50: 4870 nM

Nc1ncnc2c1c(Cc1cccc(F)c1)nn2C1CC1 [Compound 5, 1-cyclopropyl-3-(3-fluorobenzyl)-1H-pyrazolo[3,4-d]pyrimidin-4-amine]
IC50: 25.3 nM

Nc1ncnc2c1c(Cc1cccc(Cl)c1)nn2C1CCC1 [Compound 6, 3-(3-chlorobenzyl)-1-cyclobutyl-1H-pyrazolo[3,4-d]pyrimidin-4-amine]
IC50: 8.7 nM
